Reference: US9493833B1, “Methods for preventing induced synthesis of proteasomes in human cells” (THE REGENTS OF THE UNIVERSITY OF CALIFORNIA, priority 2009, dated 2016)
Where a SMILES comes first, the peptide text is derived from it. The star is where a group is joined. Cbz = O=C(OCc1ccccc1)*

Key:
[1] = target: T1, proteasome (chymotryptic site) (Homo sapiens, UniProt P20618+P28074); test: Proteasome activity recovery assay in HT29 cells after drug wash-out; format: cell-based
T1 construct: endogenous in cells; host or cells: HT29 human colon cancer cells, treated intact; activity measured in freeze-thaw lysate
Protocol: Cells were frozen at different time points as indicated and were used for proteasome activity assays as described herein. For each time point, the results are normalized to DMSO-treated control in the case of hatched lines and to CHX-treated control in the case of solid lines. Error bars denote SD (n=3). […] The results were normalized to DMSO-treated control for each cell type. Error bars denote S.E.M. (n=2). […] The next day, the cells were treated with indicated concentrations of YU101 and the pan-caspase inhibitor Z-VAD-FMK, and further incubated for 72 hrs. The cell viability was then assessed using the CellTiter-Glo method (FIG. 12A). The results were normalized to DMSO-treated control which was set to 100% in each case. Error bars denote S.E.M. (n=2). […] The cell lysates were used for immunoblotting to detect the levels of Nrf1 (with the antibody raised against N-terminus) and cleaved caspase-3. β-actin protein levels were used as loading control. […] The cells were then washed with PBS thrice and allowed to recover in fresh medium. At definite time points, the cells were freeze-thawed in TE buffer (20 mM Tris pH 8, 5 mM EDTA) and subsequently used for measuring proteasome activity as described previously (Demo et al., 2007).

[2] = test system: anti-oxidant response elements (8×AREs); test: 8×ARE-SV40-Luc luciferase reporter assay in LNCaP cells; format: cell-based, human; details: for luciferase activity (8×ARE reporter) in combination with MG132: TSA or SAHA added with MG132, 16 hours
Protocol: TSA and SAHA were assayed using a luciferase reporter construct. The luciferase reporter was driven by a promoter harboring multimerized anti-oxidant response elements (8×AREs) and was transfected into LNCaP cells.
(§1) LNCaP cells were subjected to treatment with one of MG132 (1 μM), TSA (1 μM), SAHA (5 μM), MG132 (1 μM)+TSA (1 μM), or MG132 (1 μM)+SAHA (1 μM) for 10 hrs and the RNA from these cells was used for quantitative RT-PCR to assess the mRNA levels of representative PSM genes (FIG. 5A). The values were normalized to GAPDH and the DMSO-treated sample was set to 1. A representative experiment performed in duplicates is shown. MDA-MB-231 cells were treated with different agents at the same concentrations as above (except MG132 which was used at 5 μM) for 48 hrs after which the cells were used for cell-titer glo assay to assess cell viability. Data from an experiment performed in quadruplicates is shown (FIG. 5B). LNCaP cells transfected with 8×ARE-SV40-Luc construct alone (control) or co-transfected with Flag-Nrf1 were further treated with different agents as indicated (FIG. 10). pRL-TK renilla luciferase expression construct was used as a transfection control for normalization. Sixteen hours later, the cells were harvested and used for Luciferase assay.
(§2) Cells were transiently transfected with the firefly (promoter reporters) and renilla luciferase (pRL-TK; Promega) constructs along with effector plasmid as required. After harvesting the cells, luciferase assays were performed using the Dual Luciferase reporter assay system (E1910; Promega) according to the instructions from the manufacturer. The firefly luciferase activity was normalized to renilla luciferase activity for all experiments.

[3] = test system: murine PSMB6 promoter; test: PSMB6-Luc promoter-reporter luciferase assay in MEFs; format: cell-based, mouse; details: WT MEFs, MG132 12 hrs
Protocol: (§3) Sequence alignment of the genomic region close to the transcription start site (indicated by +1) of the PSMB6 gene in mouse and human. The putative ARE sequences and the start codon are marked as shown (FIG. 6). WT and Nrf1^−/− MEFs were transfected with the PSMB6-Luc construct and 24 hrs post-transfection, the cells were treated with the indicated concentration of MG132 for 12 hrs after which luciferase assays were performed as described herein (FIG. 7). Error bars denote SD (n=3). […] LNCaP cells were transiently transfected with the indicated reporter constructs along with either a vector control or Flag-Nrf1 expression construct. Forty-eight hours (hrs) after transfection, the cells were further incubated with the indicated concentration of MG132 for 12 hrs after which luciferase assays were performed as described herein (FIG. 9). Error bars denote SD (n=3).
as §2

[4] = test system: PSM genes; test: mRNA levels of representative PSM genes by quantitative RT-PCR in MEFs (WT, Nrf1−/−, Nrf2−/−; retroviral transduction); format: cell-based, mouse; details: 10 hrs
Protocol: Specifically, MEFs of different genotypes (WT, Nrf1^−/−, and Nrf2^−/−) were treated for 10 hrs with MG132 as indicated (FIG. 2A), and the cell lysates were used for immunoblotting to detect protein levels of Nrf1 (with the antibody raised against the N-terminus) and Nrf2. β-actin protein levels were used as loading control. RNA from MEFs under the same treatment conditions as above was used for quantitative RT-PCR to assess the mRNA levels of representative PSM genes (FIGS. 2B-2C), The values were normalized to GAPDH and the DMSO treated WT sample was set to 1. Error bars denote SD (n=3).
Nrf1^−/− MEFs were transduced with retrovirus expressing one of Flag-Nrf1, Flag-Nrf1-HA or vector control and 72 hrs later treated with MG132 for 10 hrs as indicated. The cell lysates were used for immunoblotting to detect the levels of exogenous Nrf1 by using tag-specific antibodies (FIG. 3A). β-actin protein levels were used as loading control. RNA from Nrf1^−/− MEFs under the same viral transduction and treatment conditions as above was used for quantitative RT-PCR to assess the mRNA levels of representative PSM genes (FIG. 3B). The values were normalized to GAPDH and the vector-transduced DMSO-treated sample was set to 1. Error bars denote SD (n=3).
WT and Nrf1^−/− MEFs were transduced with retrovirus expressing sh-Nrf1 or vector control and 72 hrs later treated with MG132 for 10 hrs as indicated. […] RNA from MEFs under the same viral transduction and treatment conditions as above was used for quantitative RT-PCR to assess the mRNA levels of representative PSM genes (FIG. 4B). […]
(§4) RNA was isolated using the RNeasy kit (Qiagen). cDNA was prepared using the Superscript III first strand synthesis kit (Invitrogen) according to the manufacturer's recommendations. Quantitative PCR (qPCR) was performed using the SYBR GreenER supermix (Invitrogen).

[5] = test system: PSMA4 ARE; test: 3×PSMA4-ARE-Luc / 3×PSMA4-mutARE-Luc luciferase assay in LNCaP cells; format: cell-based, human; details: for luciferase activity (3×PSMA4-mutARE-Luc, AREs mutated) / luciferase activity (3×PSMA4-ARE-Luc): LNCaP; for luciferase activity (3×PSMA4-ARE-Luc): versus DMSO-treated / vector control, MG132 12 hrs
Protocol: as §3, §2

[6] = test system: PSM genes (PSMA7, PSMB4, PSMB7, PSMC1, PSMC4, PSMD1, PSMD12); test: mRNA levels of representative PSM genes by quantitative RT-PCR in LNCaP and HT-29 cells treated with proteasome inhibitors or MLN4924; format: cell-based, human; details: 10 hrs, normalized to GAPDH, DMSO set to 1
Protocol: The human prostate cancer LNCaP and colon cancer HT29 cell lines were incubated with different proteasome inhibitors (MG132, YU101, and bortezomib) or the Nedd8 pathway inhibitor MLN4924 (Soucy et al., 2009, Nature, 458, 732-736). Prostate cancer LNCaP and colon cancer HT-29 cells were treated with the indicated concentrations of proteasome inhibitors (MG132, YU101, and Bortezomib) or the Nedd8 pathway inhibitor (MLN4924) for 10 hrs, and mRNA levels of representative PSM genes were analyzed by quantitative RT-PCR (FIGS. 1A-1C). The values were normalized to GAPDH and for each cell line the DMSO treated sample was set to 1. Error bars denote SD (n=3). […] MLN4924 works by inhibiting the Nedd8-activating enzyme, the result of which is the accumulation of cullin-RING ligase (CRL) substrates (Soucy et al., 2009).
as §4

[7] = test system: MDA-MB-231 cells; test: Cell-titer glo cell viability, MG132 combined with TSA or SAHA; format: cell-based, human; details: MDA-MB-231, MG132 5 μM combined with TSA or SAHA, 48 hrs
Protocol: as §1
Cells in 96-well plates were treated with different agents as required and cell viability was assessed using the Cell-Titer Glo kit (G7572; Promega) according to the protocol recommended by the manufacturer. By employing a luminescence read-out, this kit quantifies the level of ATP which is proportional to the number of viable cells.

[8] = test system: PSM genes; test: PSM gene mRNA by quantitative RT-PCR in LNCaP cells treated with MG132 and HDAC inhibitors; format: cell-based, human; details: 10 hrs; for MG132-mediated upregulation of representative PSM genes: MG132 1 μM + TSA 1 μM or MG132 1 μM + SAHA 1 μM; for steady-state PSM gene expression: TSA 1 μM or SAHA 5 μM alone
Protocol: as §1, §4

[9] = after administration; cited from earlier work

| Molecule | luciferase activity (3×PSMA4-mutARE-Luc, AREs mutated) [5] | luciferase activity (3×PSMA4-ARE-Luc) [5] | mRNA levels of PSM genes [6] | luciferase activity (8×ARE reporter) in combination with MG132 [2] | apoptosis / cell viability in combination with MG132 [7] | MG132-mediated upregulation of representative PSM genes [8] | steady-state PSM gene expression [8] | clearance from the patients' blood [9] | also measured |
| --- | --- | --- | --- | --- | --- | --- | --- | --- | --- |
| CC(C)C[C@@H](C=O)NC(=O)[C@H](CC(C)C)NC(=O)[C@H](CC(C)C)NC(=O)OCc1ccccc1 [MG132] (Cbz-Leu-Leu-Leu-aldehyde) | neither MG132 nor overexpressed Flag-Nrf1 induced the synthetic promoter construct | an increase in luciferase activity was observed when compared to DMSO-treated control | robustly induce mRNA levels of several PSM genes | – | – | – | – | – | inhibition at 2 µM ([1]; HT-29, read-out: inhibition of the chymotryptic site): 80 to 90%; luciferase expression (8×ARE reporter) ([2]; MG132 alone versus untreated cells): luciferase expression was increased compared to non-test (untreated) cells; luciferase activity (PSMB6 promoter-reporter) [3]: dose dependent increase in luciferase activity; mRNA levels of PSM genes after MG132 ([4]; Nrf1−/− MEFs): severely blunted in their ability to upregulate PSM genes; mRNA levels of PSM genes after MG132 ([4]; Nrf2−/− MEFs): induced mRNA levels of PSM genes; mRNA levels of PSM genes after MG132 ([4]; WT MEFs): induced mRNA levels of PSM genes; luciferase activation (3×PSMA4-ARE-Luc) in cells overexpressing Flag-Nrf1 ([5]; LNCaP with Flag-Nrf1, plus MG132): further enhanced |
| O=C(CCCCCCC(=O)Nc1ccccc1)NO [SAHA, suberoylanilide hydroxamic acid] | – | – | – | basal levels of luciferase activity were observed | enhanced apoptosis (decreased viability) | reproducibly inhibited the MG132-mediated upregulation of representative PSM genes | little effect on steady-state PSM gene expression | – | – |
| CC(/C=C/C(=O)NO)=C\[C@@H](C)C(=O)c1ccc(N(C)C)cc1 [TSA, trichostatin A] | – | – | – | basal levels of luciferase activity were observed | enhanced apoptosis (decreased viability) | reproducibly inhibited the MG132-mediated upregulation of representative PSM genes | little effect on steady-state PSM gene expression | – | – |
| CC(C)C[C@H](NC(=O)[C@H](Cc1ccccc1)NC(=O)c1cnccn1)B(O)O [bortezomib] | – | – | robustly induce mRNA levels of several PSM genes | – | – | – | – | rapidly cleared from the patients' blood within the first hour | inhibition at 0.04 µM ([1]; HT-29, HT29, 1 hr, MG132 2 μM, YU101 100 nM, Bortezomib 40 nM): 80 to 90% |
| CC(C)C[C@H](NC(=O)[C@H](CCc1ccccc1)NC(=O)CN1CCOCC1)C(=O)N[C@@H](Cc1ccccc1)C(=O)N[C@@H](CC(C)C)C(=O)[C@@]1(C)CO1 [carfilzomib] | – | – | – | – | – | – | – | rapidly cleared from the patients' blood within the first hour | – |
| Flag-Nrf1: human Nrf1 with N-terminal 3×FLAG tag, expressed from pMSCV-hyg retroviral vector (protein, UniProt Q14494 1-772, looked up, N-terminal 3xFLAG tag, human Nrf1 with N-terminal 3×FLAG tag, expressed from pMSCV-hyg retroviral vector) Endoplasmic reticulum …: MLSLKKYLTEGLLQFTILLSLIGVRVDVDTYLTSQLPPLREIILGPSSAYTQTQFHNLRNTLDGYGIHPKSIDLDNYFTARRLLSQVRALDRFQVPTTEVNAWLVHRDPEGSVSGSQPNSGLALESSSGLQDVTGPDNGVRESETEQGFGEDLEDLGAVAPPVSGDLTKEDIDLIDILWRQDIDLGAGREVFDYSHRQKEQDVEKELRDGGEQDTWAGEGAEALARNLLVDGETGESFPAQVPSGEDQTALSLEECLRLLEATCPFGENAEFPADISSITEAVPSESEPPALQNNLLSPLLTGTESPFDLEQQWQDLMSIMEMQAMEVNTSASEILYSAPPGDPLSTNYSLAPNTPINQNVSLHQASLGGCSQDFLLFSPEVESLPVASSSTLLPLAPSNSTSLNSTFGSTNLTGLFFPPQLNGTANDTAGPELPDPLGGLLDEAMLDEISLMDLAIEEGFNPVQASQLEEEFDSDSGLSLDSSHSPSSLSSSEGSSSSSSSSSSSSSSASSSASSSFSEEGAVGYSSDSETLDLEEAEGAVGYQPEYSKFCRMSYQDPAQLSCLPYLEHVGHNHTYNMAPSALDSADLPPPSALKKGSKEKQADFLDKQMSRDEHRARAMKIPFTNDKIINLPVEEFNELLSKYQLSEAQLSLIRDIRRRGKNKMAAQNCRKRKLDTILNLERDVEDLQRDKARLLREKVEFLRSLRQMKQKVQSLYQEVFGRLRDENGRPYSPSQYALQYAGDGSVLLIPRTMADQQARRQERKPKDRRK | neither MG132 nor overexpressed Flag-Nrf1 induced the synthetic promoter construct | activated this synthetic promoter construct | – | – | – | – | – | – | – |
